{"source": "ChEMBL document CHEMBL3217410", "about": "“New potent, short-linker BODIPY-630/650TM labelled fluorescent adenosine receptor agonists” (Medchemcomm, 2012)", "key": {"[1]": {"biological_target": "T1, Adenosine receptor A1 (Homo sapiens) (UniProt P30542)", "T1 sequence (whole entry)": "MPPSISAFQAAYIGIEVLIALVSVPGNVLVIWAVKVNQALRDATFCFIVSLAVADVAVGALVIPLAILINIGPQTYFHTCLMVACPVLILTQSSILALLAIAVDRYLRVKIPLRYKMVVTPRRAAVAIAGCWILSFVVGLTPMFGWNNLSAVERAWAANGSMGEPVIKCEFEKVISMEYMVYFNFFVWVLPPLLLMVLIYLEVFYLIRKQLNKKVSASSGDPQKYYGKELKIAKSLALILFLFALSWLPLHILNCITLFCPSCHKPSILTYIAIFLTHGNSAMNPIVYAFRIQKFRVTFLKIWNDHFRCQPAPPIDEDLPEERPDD", "assay": "(§1) Agonist activity at human adenosine A1 receptor expressed in CHO cells assessed as Gi-mediated inhibition of forskolin-stimulated SPAP secretion incubated for 10 mins prior to forskolin challenge measured after 5 hrs by spectrophotometry", "type": "functional, cell-based"}, "Adenosine receptor A1 [2]": {"biological_target": "T2, Adenosine receptor A1 (Homo sapiens, UniProt P30542)", "T2 sequence (P30542 whole entry)": "T1 sequence (whole entry)", "assay": "as §1", "type": "functional, cell-based"}, "[3]": {"biological_target": "T1, Adenosine receptor A1 (Homo sapiens)", "assay": "(§2) Agonist activity at human adenosine A1 receptor expressed in CHO cells assessed as Gs-mediated activation of forskolin-stimulated SPAP secretion incubated for 10 mins prior to forskolin challenge measured after 5 hrs by spectrophotometry", "type": "functional, cell-based"}, "Adenosine receptor A1 [4]": {"biological_target": "T2, Adenosine receptor A1", "assay": "as §2", "type": "functional, cell-based"}, "[5]": {"biological_target": "T1, Adenosine receptor A1 (Homo sapiens)", "assay": "Agonist activity at human adenosine A1 receptor expressed in CHO cells assessed as Gi-mediated inhibition of forskolin-stimulated SPAP secretion incubated for 10 mins prior to forskolin challenge measured after 5 hrs in presence of 1 uM adenosine A1 receptor antagonist XAC by spectrophotometry", "type": "functional, cell-based"}, "[6]": {"biological_target": "T1, Adenosine receptor A1 (Homo sapiens)", "assay": "(§3) Displacement of [3H]DPCPX from human adenosine A1 receptor expressed in CHO cells after 2 hrs by scintillation counting analysis relative to control", "type": "cell-based"}, "Adenosine receptor A1 [7]": {"biological_target": "T2, Adenosine receptor A1", "assay": "as §3", "type": "cell-based"}, "[8]": {"biological_target": "T1, Adenosine receptor A1 (Homo sapiens)", "assay": "Binding affinity to human adenosine A1 receptor expressed in CHO cells at 100 nM after 30 mins by confocal microscopy in presence of DPCPX", "type": "cell-based"}, "[9]": {"biological_target": "T1, Adenosine receptor A1 (Homo sapiens)", "assay": "Binding affinity to human adenosine A1 receptor expressed in CHO cells at 100 nM after 30 mins by confocal microscopy", "type": "cell-based"}, "[10]": {"biological_target": "T1, Adenosine receptor A1 (Homo sapiens)", "assay": "Agonist activity at human adenosine A1 receptor expressed in CHO cells assessed as Gs-mediated activation of forskolin-stimulated SPAP secretion up to 10^-5 M incubated for 10 mins prior to forskolin challenge measured after 5 hrs by spectrophotometry", "type": "functional, cell-based"}, "[11]": {"biological_target": "T1, Adenosine receptor A1 (Homo sapiens)", "assay": "Binding affinity to human adenosine A1 receptor expressed in CHO cells assessed as internalization at 100 nM after 30 mins by confocal microscopy", "type": "cell-based"}}, "note": "Active and inactive are the calls of the source. The rule behind the calls is not given here.", "data": [{"smiles": "CCNC(=O)[C@H]1O[C@@H](n2cnc3c(NCCCCNC(=O)COc4ccc(/C=C/C5=[N+]6C(=Cc7ccc(-c8cccs8)n7[B-]6(F)F)C=C5)cc4)ncnc32)[C@H](O)[C@@H]1O", "values": [{"measurement": "inhibition", "setting": "[1]", "value": 101, "unit": "%"}, {"measurement": "IC50", "setting": "Adenosine receptor A1 [2]", "value": 5.25, "unit": "nM"}, {"measurement": "Activity", "setting": "[3]", "value": 155, "unit": "%"}, {"measurement": "EC50", "setting": "Adenosine receptor A1 [4]", "value": 2340, "unit": "nM"}, {"measurement": "Activity", "setting": "[5]", "value": "inactive"}, {"measurement": "Activity", "setting": "[6]", "value": 43, "unit": "%"}, {"measurement": "Ki", "setting": "Adenosine receptor A1 [7]", "value": 263, "unit": "nM"}, {"measurement": "Activity", "setting": "[8]", "value": "inactive"}]}, {"smiles": "CCNC(=O)[C@H]1O[C@@H](n2cnc3c(N)ncnc32)[C@H](O)[C@@H]1O", "values": [{"measurement": "inhibition", "setting": "[1]", "value": 105, "unit": "%"}, {"measurement": "Activity", "setting": "[3]", "value": 177, "unit": "%"}, {"measurement": "Activity", "setting": "[5]", "value": "inactive"}, {"measurement": "Activity", "setting": "[6]", "value": 73, "unit": "%"}]}, {"smiles": "CCNC(=O)[C@H]1O[C@@H](n2cnc3c(NCCNC(=O)COc4ccc(/C=C/C5=[N+]6C(=Cc7ccc(-c8cccs8)n7[B-]6(F)F)C=C5)cc4)ncnc32)[C@H](O)[C@@H]1O", "values": [{"measurement": "inhibition", "setting": "[1]", "value": 100, "unit": "%"}, {"measurement": "IC50", "setting": "Adenosine receptor A1 [2]", "value": 2.04, "unit": "nM"}, {"measurement": "Activity", "setting": "[3]", "value": 64, "unit": "%"}, {"measurement": "EC50", "setting": "Adenosine receptor A1 [4]", "value": 234, "unit": "nM"}, {"measurement": "Activity", "setting": "[5]", "value": "inactive"}, {"measurement": "Activity", "setting": "[6]", "value": 50, "unit": "%"}, {"measurement": "Ki", "setting": "Adenosine receptor A1 [7]", "value": 363, "unit": "nM"}, {"measurement": "Activity", "setting": "[9]", "value": "Active"}, {"measurement": "Activity", "setting": "[8]", "value": "inactive"}]}, {"smiles": "CCNC(=O)[C@H]1O[C@@H](n2cnc3c(NCCOCCOCCOCCNC(=O)COc4ccc(/C=C/C5=[N+]6C(=Cc7ccc(-c8cccs8)n7[B-]6(F)F)C=C5)cc4)ncnc32)[C@H](O)[C@@H]1O", "values": [{"measurement": "inhibition", "setting": "[1]", "value": 99, "unit": "%"}, {"measurement": "IC50", "setting": "Adenosine receptor A1 [2]", "value": 191, "unit": "nM"}, {"measurement": "Activity", "setting": "[3]", "value": "inactive"}, {"measurement": "Activity", "setting": "[5]", "value": "inactive"}]}, {"smiles": "CCNC(=O)[C@H]1O[C@@H](n2cnc3c(NCCCCCCCCNC(=O)COc4ccc(/C=C/C5=[N+]6C(=Cc7ccc(-c8cccs8)n7[B-]6(F)F)C=C5)cc4)ncnc32)[C@H](O)[C@@H]1O", "values": [{"measurement": "IC50", "setting": "Adenosine receptor A1 [2]", "value": 26.9, "unit": "nM"}, {"measurement": "Activity", "setting": "[3]", "value": "inactive"}, {"measurement": "Activity", "setting": "[10]", "value": "inactive"}, {"measurement": "Activity", "setting": "[5]", "value": "inactive"}, {"measurement": "Activity", "setting": "[8]", "value": "inactive"}]}, {"smiles": "CCNC(=O)[C@H]1O[C@@H](n2cnc3c(NCCCNC(=O)COc4ccc(/C=C/C5=[N+]6C(=Cc7ccc(-c8cccs8)n7[B-]6(F)F)C=C5)cc4)ncnc32)[C@H](O)[C@@H]1O", "values": [{"measurement": "inhibition", "setting": "[1]", "value": 97, "unit": "%"}, {"measurement": "IC50", "setting": "Adenosine receptor A1 [2]", "value": 0.49, "unit": "nM"}, {"measurement": "Activity", "setting": "[3]", "value": 188, "unit": "%"}, {"measurement": "EC50", "setting": "Adenosine receptor A1 [4]", "value": 263, "unit": "nM"}, {"measurement": "Activity", "setting": "[5]", "value": "inactive"}, {"measurement": "Activity", "setting": "[6]", "value": 59, "unit": "%"}, {"measurement": "Ki", "setting": "Adenosine receptor A1 [7]", "value": 417, "unit": "nM"}, {"measurement": "Activity", "setting": "[9]", "value": "Active"}, {"measurement": "Activity", "setting": "[8]", "value": "inactive"}]}, {"smiles": "CCNC(=O)[C@H]1O[C@@H](n2cnc3c(NCCCCCCCCCCCNC(=O)COc4ccc(/C=C/C5=[N+]6C(=Cc7ccc(-c8cccs8)n7[B-]6(F)F)C=C5)cc4)ncnc32)[C@H](O)[C@@H]1O", "values": [{"measurement": "IC50", "setting": "Adenosine receptor A1 [2]", "value": 129, "unit": "nM"}, {"measurement": "Activity", "setting": "[3]", "value": "inactive"}, {"measurement": "Activity", "setting": "[10]", "value": "inactive"}, {"measurement": "Activity", "setting": "[5]", "value": "inactive"}, {"measurement": "Activity", "setting": "[8]", "value": "inactive"}, {"measurement": "Activity", "setting": "[11]", "value": "Active"}]}, {"smiles": "CCNC(=O)[C@H]1O[C@@H](n2cnc3c(NCCOCCOCCNC(=O)COc4ccc(/C=C/C5=[N+]6C(=Cc7ccc(-c8cccs8)n7[B-]6(F)F)C=C5)cc4)ncnc32)[C@H](O)[C@@H]1O", "values": [{"measurement": "inhibition", "setting": "[1]", "value": 102, "unit": "%"}, {"measurement": "IC50", "setting": "Adenosine receptor A1 [2]", "value": 74.1, "unit": "nM"}, {"measurement": "Activity", "setting": "[3]", "value": "inactive"}, {"measurement": "Activity", "setting": "[5]", "value": "inactive"}, {"measurement": "Activity", "setting": "[9]", "value": "Active"}, {"measurement": "Activity", "setting": "[8]", "value": "inactive"}]}]}
